PMC8327344, “Regulation of a pentameric ligand-gated ion channel by a semiconserved cationic lipid-binding site” (The Journal of Biological Chemistry, 2021)

Experiments:
ELIC W206A = molecular target: T1, ELIC W206A (Dickeya chrysanthemi, UniProt P0C7B7, INS163G/W205A); experiment: FlexStation membrane potential dye assay, GABA-elicited responses; assay type: cell-based, D. didantii; conditions: HEK293 cells, up to 100 mM GABA
T1 construct: expressed in transfected cells; host or cells: HEK293
Protocol: (§1) These methods were similar to those previously described ([55]). Briefly, ELIC cDNA was transfected into HEK293 cells, and these were then grown for 2 to 3 days in a 96-well plate. Then blue fluorescent membrane potential dye (Molecular Devices Ltd) diluted in Flex buffer (10 mM HEPES, 115 mM NaCl, 1 mM KCl, 1 mM CaCl2, 1 mM MgCl2, 10 mM glucose, pH 7.4) was added to each well. After incubation at 37 °C for 30 min, plates were placed in a FlexStation (Molecular Devices Ltd) and fluorescence measured every 2 s for 120 s. […] Concentration–response data were fitted to the four-parameter logistic equation, F = Fmin + (Fmax − Fmin)/(1 + 10^log(EC50-[A])∗^nH), where [A] is the concentration of agonist, nH is the Hill coefficient, and Fmax and Fmin are the maximal and minimal fluorescence levels for each dataset, using Prism software (GraphPad). WT and mutant responses were compared using an ANOVA test followed by Dunnett’s multiple comparison test.

ELIC W206F = molecular target: T2, ELIC W206F (Dickeya chrysanthemi, UniProt P0C7B7, INS163G/W205F); experiment: as above; assay type: cell-based, D. didantii; conditions: HEK293 cells, n = 4
T2 construct: expressed in transfected cells; host or cells: HEK293
Protocol: as §1

ELIC W206Y = experiment: as above; assay type: cell-based, D. didantii; conditions: HEK293 cells
Protocol: as §1

wild-type (WT) ELIC = experiment: as above; assay type: cell-based, D. didantii; conditions: HEK293 cells transfected with WT ELIC
Protocol: as §1

[1] = tested on: ELIC with fluorinated Trp at W206; experiment: Two-electrode voltage clamp of oocytes, noncanonical fluorinated Trp (FW, F2W, F3W) at position 206; assay type: cell-based, D. didantii; conditions: F3W at position 206, compared with WT
Protocol: Site-directed mutagenesis was performed using the QuikChange strategy (Stratagene) using ELIC in pGEM-HE. Mutations were confirmed by sequencing. For noncanonical amino acid mutants, the site of interest was mutated to the TAG stop codon. Plasmids were linearized and receptor mRNA prepared by in vitro runoff transcription using the Ambion T7 mMessage mMachine kit. Noncanonical amino acids ligated to tRNA were prepared as previously described ([56]).
Stage V-VI oocytes of Xenopus laevis were harvested and injected with mRNAs as described previously. For experiments with WT channels and conventional mutants, each cell received a single injection of 10 to 25 ng of receptor mRNA approximately 24 h before recording. For nonsense suppression experiments, each cell was injected with 50 to 100 ng each of receptor mRNA and appropriate tRNA approximately 48 h before recording. Injection volumes for each injection session were 50 to 100 nl per cell.
Two-electrode voltage clamping of Xenopus oocytes was performed using an OpusXpress system (Axon Instruments, Inc). All experiments were performed at 22 to 25 °C. […] The holding potential was −60 mV unless otherwise specified. Concentration–response curves and parameters were obtained using Prism software (GraphPad, PRISM).

[2] = tested on: α1β2 εF260E mutant GABAAR; experiment: Two electrode voltage clamp recordings from Xenopus oocytes; assay type: cell-based, human; conditions: ε F260E compared with WT
Protocol: Mutations were engineered with a QuikChange strategy and confirmed by sequencing. For functional expression of GABAAR containing an ε subunit, the mRNAs encoding for the human α1 (NP_000797.2), β2 (NP_068711.1) and ε subunits were mixed in a 1:1:0.1 ratio in nuclease-free distilled water at a concentration of 0.4 μg/μl (n.b. the definitive stoichiometry of the expressed receptors was not determined). […] Injection of 2 ng of mRNA per oocyte was done using the automated injection system Roboinject (Multi Channel Systems). Oocytes were incubated at 18 °C for 2 to 5 days prior to conducting the electrophysiological recordings using the two electrode automated voltage clamp system (HiClamp apparatus, Multi Channel Systems). […] Data acquired with the HiClamp were analyzed using the manufacturer’s software (Multi Channel Systems). Concentration–activation curves were fitted with the empirical Hill equation. Data are presented as the mean ± standard deviation (SD). Statistical comparison between WT and mutants was done with an unpaired, two-tailed t test with Welch’s correction for unequal sample size and variance.

In the case of NCCCC(=O)O [GABA], the GABA-elicited response (ELIC W206A) is reported as “no response”, the EC50 (ELIC W206F) is reported as 2 mM and the pEC50 (ELIC W206F) is reported as 2.694 ± 0.08. For the same compound, the maximal response (ELIC W206Y) was ~60 % of WT, the Hill coefficient (wild-type (WT) ELIC) was 2.2 ± 1.4 and the “change of EC50-values” [1] was “increased EC50-values”. For the same compound, the “decrease of apparent GABA affinity” value [2] was “threefold”.
